Like-named read-outs stand apart in the source and are kept apart here.
Assays:
U87MG tumor-bearing mice = assay: PET/CT imaging of U87MG tumor-bearing mice; format: in vivo; settings: 3 h after i.v. injection of ~10 MBq (~1 nmol), one or two mice
Method: The energy window was set to 150–650 keV. […] All static PET scans lasted for 20 min.

[1] = Biodistribution in U87MG tumor-bearing mice; format: in vivo; settings: female, CD-1 nude (athymic nude), mouse, iv, total radioactivity, i.v. ~5 MBq (~1 nmol), mean ± SD; for tissue to tissue ratio at 0.5 h / tissue uptake at 0.5 h: 30 min p.i.; for tissue to tissue ratio at 5 h / tissue uptake at 5 h: 5 h p.i.
[2] = U87MG tumor / blood, n=3, read-out: Tumor-to-blood ratio
[3] = U87MG tumor / kidneys, n=3, read-out: Tumor-to-kidney ratio
[4] = U87MG tumor / liver, n=3, read-out: Tumor-to-liver ratio
[5] = U87MG tumor, n=3, read-out: Biodistribution, U87MG Tumor
[6] = blood, 5 MBq per mouse, n=3, read-out: Biodistribution, Blood
[7] = bone, 5 MBq per mouse, n=3, read-out: Biodistribution, Bone
[8] = brain, 5 MBq per mouse, n=3, read-out: Biodistribution, Brain
[9] = heart, 5 MBq per mouse, n=3, read-out: Biodistribution, Heart
[10] = intestines, 5 MBq per mouse, n=3, read-out: Biodistribution, Intestines
[11] = kidneys, n=3, read-out: Biodistribution, Kidneys
[12] = liver, n=3, read-out: Biodistribution, Liver
[13] = lung, 5 MBq per mouse, n=3, read-out: Biodistribution, Lung
[14] = muscle, 5 MBq per mouse, n=3, read-out: Biodistribution, Muscle
[15] = skin, 5 MBq per mouse, n=3, read-out: Biodistribution, Skin
[16] = spleen, 5 MBq per mouse, n=3, read-out: Biodistribution, Spleen
[17] = stomach, 5 MBq per mouse, n=3, read-out: Biodistribution, Stomach

N=C(N)NCCC[C@@H]1NC(=O)[C@H](CCCCNC(=O)CCC(C(=O)O)N2CCN(CC(=O)O)CCN(CC(=O)O)CC2)NC(=O)[C@@H](Cc2ccc(O)cc2)NC(=O)[C@H](CC(=O)O)NC(=O)CNC1=O (some centres unmarked) [^44Sc-NODAGA-RGD, metal not drawn]
PET/CT distribution of radioactivity (in words) (U87MG tumor-bearing mice): comparable to ^68Ga-NODAGA-RGD but showed somewhat more background activity in the abdominal tract | tissue to tissue ratio at 0.5 h [1, 2]: 4.73 ± 1.24 | tissue to tissue ratio at 5 h [1, 2]: 30.5 ± 9.93 | tissue to tissue ratio at 0.5 h [1, 3]: 1.18 ± 0.28 | tissue to tissue ratio at 2 h ([1]; U87MG tumor / kidneys, 2 h p.i., n=3, read-out: Tumor-to-kidney ratio): 2.68 ± 0.14 | tissue to tissue ratio at 5 h [1, 3]: 2.58 ± 0.24 | tissue to tissue ratio at 0.5 h [1, 4]: 3.02 ± 0.4 | tissue to tissue ratio at 5 h [1, 4]: 2.82 ± 0.21 | tissue uptake at 0.5 h [1, 5]: 4.5 ± 0.77 %ID/g | tissue uptake at 5 h [1, 5]: 3.01 ± 0.55 %ID/g | tissue uptake at 0.5 h [1, 6]: 0.98 ± 0.21 %ID/g | tissue uptake at 5 h [1, 6]: 0.11 ± 0.07 %ID/g | tissue uptake at 0.5 h [1, 7]: 1.53 ± 0.16 %ID/g | tissue uptake at 5 h [1, 7]: 0.76 ± 0.03 %ID/g | tissue uptake at 0.5 h [1, 8]: 0.1 ± 0.01 %ID/g | tissue uptake at 5 h [1, 8]: 0.06 ± 0.01 %ID/g | tissue uptake at 0.5 h [1, 9]: 0.89 ± 0.13 %ID/g | tissue uptake at 2 h ([1]; heart, 5 MBq per mouse, 2 h p.i., n=3, read-out: Biodistribution, Heart): 0.44 ± 0.04 %ID/g | tissue uptake at 5 h [1, 9]: 0.35 ± 0.13 %ID/g | tissue uptake at 0.5 h [1, 10]: 1.76 ± 0.22 %ID/g | tissue uptake at 2 h ([1]; intestines, 5 MBq per mouse, 2 h p.i., n=3, read-out: Biodistribution, Intestines): 0.91 ± 0.16 %ID/g | tissue uptake at 5 h [1, 10]: 0.75 ± 0.13 %ID/g | tissue uptake at 2 h ([1]; kidneys, 5 MBq per mouse, 2 h p.i., n=3, read-out: Biodistribution, Kidneys): 1.5 ± 0.3 %ID/g | tissue uptake at 0.5 h [1, 11]: 3.89 ± 0.68 %ID/g | tissue uptake at 5 h [1, 11]: < 2 %ID/g | tissue uptake at 0.5 h [1, 12]: 1.49 ± 0.06 %ID/g | tissue uptake at 2 h ([1]; liver, 2 h p.i., n=3, read-out: Biodistribution, Liver): 1.34 ± 0.27 %ID/g | tissue uptake at 5 h [1, 12]: ~1 %ID/g | tissue uptake at 0.5 h [1, 13]: 2.2 ± 0.68 %ID/g | tissue uptake at 5 h [1, 13]: 0.65 ± 0.16 %ID/g | tissue uptake at 0.5 h [1, 14]: 0.68 ± 0.03 %ID/g | tissue uptake at 5 h [1, 14]: 0.3 ± 0.06 %ID/g | tissue uptake at 2 h ([1]; pancreas, 5 MBq per mouse, 2 h p.i., n=3, read-out: Biodistribution, pancreas): 0.43 ± 0.04 %ID/g | tissue uptake at 5 h ([1]; pancreas, 5 MBq per mouse, n=3, read-out: Biodistribution, pancreas): 0.37 ± 0.07 %ID/g | tissue uptake at 0.5 h ([1]; pancreas, n=3, read-out: Biodistribution, pancreas): 0.73 ± 0.22 %ID/g | tissue uptake at 0.5 h [1, 15]: 1.97 ± 0.17 %ID/g | tissue uptake at 2 h ([1]; skin, 5 MBq per mouse, 2 h p.i., n=3, read-out: Biodistribution, Skin): 1.3 ± 0.13 %ID/g | tissue uptake at 5 h [1, 15]: 1.21 ± 0.34 %ID/g | tissue uptake at 0.5 h [1, 16]: 1.63 ± 0.21 %ID/g | tissue uptake at 2 h ([1]; spleen, 5 MBq per mouse, 2 h p.i., n=3, read-out: Biodistribution, Spleen): 1.58 ± 0.31 %ID/g | tissue uptake at 5 h [1, 16]: 0.95 ± 0.19 %ID/g | tissue uptake at 0.5 h [1, 17]: 1.69 ± 0.16 %ID/g | tissue uptake at 2 h ([1]; stomach, 5 MBq per mouse, 2 h p.i., n=3, read-out: Biodistribution, Stomach): 1.01 ± 0.32 %ID/g | tissue uptake at 5 h [1, 17]: 0.8 ± 0.03 %ID/g

— article PMC5843811, “^44Sc for labeling of DOTA- and NODAGA-functionalized peptides: preclinical in vitro and in vivo investigations” (EJNMMI Radiopharmacy and Chemistry, 2016)
